Source: patent publication US8748666B2, “Preparation methods of methyl-D3-amine and salts thereof” (Suzhou Zelgen Biopharmaceutical Co., Ltd., priority 2010, dated 2014)

System: human hepatocellular carcinoma SMMC-7721
Experiment: Inhibition of tumor growth of human hepatocellular carcinoma SMMC-7721 in nude mice xenograft model
Type: in vivo, Balb/c nu/nu nude mice
Method: 70 Balb/c nu/nu nude mice, 6 weeks old, female, were bought from Shanghai Experimental Animal Resource Center (Shanghai B&K Universal Group Limited).
SMMC-7721 cells were commercially available from Shanghai Institutes for Biological Science, CAS (Shanghai, China).
The establishment of tumor nude mice xenograft model: SMMC-7721 cells in logarithmic growth period were cultured. After cell number was counted, the cells were suspended in 1×PBS, and the concentration of the cell suspension was adjusted to 1.5×10^7/ml. The tumor cells were inoculated under the skin of right armpit of nude mice with a 1 ml syringe, 3×10^6/0.2 ml/mice. 70 nude mice were inoculated in total.
When the tumor size reached 30-130 mm^3, 58 mice were divided randomly into the different groups. The difference of the mean value of tumor volume in each group was less than 10% and drugs were started to be administrated.
Animal body weight and tumor size were tested twice a week during the experiment. Clinical symptoms were recorded every day. At the end of the administration, the tumor size was recorded by taking pictures. One mouse was sacrificed in each group and tumor tissue was taken and fixed in 4% paraformaldehyde. Observation was continued after the administration, and when the mean size of tumor was larger than 2000 mm^3, or the dying status appeared, the animals were sacrificed, gross anatomy was conducted, and the tumor tissue was taken and fixed in 4% paraformaldehyde.
The formula for calculating the tumor volume (TV) is: TV=a×b^2/2, wherein a, b independently represent the length and the breadth of the tumor. The formula for calculating the relative tumor volume (RTV) is: RTV=Vt/V0, wherein V0 is the tumor volume at the beginning of the administration, and Vt is the […] when measured. The index for evaluating the antitumor activity is relative tumor increment rate T/C (%), and the formula is: T/C (%)=(TRTV/CRTV)×100%, wherein, TRTV is the RTV of the treatment group, and CRTV is the RTV of the negative control group.
Evaluation standard for efficacy: it is effective if the relative tumor increment rate T/C (%) is ≦40% and p<0.05 by statistics analysis.

[1] = 10 mg/kg po qd x 2 weeks, at the end of administration
[2] = 30 mg/kg po qd x 2 weeks, at the end of administration
[3] = 100 mg/kg po qd x 2 weeks, at the end of administration (day 15)

Row | Structure (SMILES) | relative tumor increment rate T/C % [1] | relative tumor increment rate T/C % [2] | relative tumor increment rate T/C % [3] | increase of relative value of tumor inhibition compared with CM4306 (32.2%/19.6%−1=64%) (100 mg/kg po qd x 2 weeks)
1 | [2H]C([2H])([2H])NC(=O)c1cc(Oc2ccc(NC(=O)Nc3ccc(Cl)c(C(F)(F)F)c3)cc2)ccn1 [CM4306, 4-(4-(3-(4-chloro-3-(trifluoromethyl)phenyl)ureido)-phenoxy)-2-(N-methyl)picolinamide, reference compound] | 56.9% | 40.6% | 32.2% | –
2 | [2H]C([2H])([2H])NC(=O)c1cc(Oc2ccc(NC(=O)Nc3ccc(Cl)c(C(F)(F)F)c3)cc2)ccn1 [CM4307, 4-(4-(3-(4-chloro-3-(trifluoromethyl)phenyl)ureido)-phenoxy)-N-(methyl-d3)picolinamide] | 53.6% | 40.8% | 19.6% | about 60%
